Values of other authors as cited in patent publication US20110160253A1, “DEUTERATED TIZANIDINE” (priority 2008, published 2011).

Experiments:
[1] = primary cytochrome P450 isoenzyme involved being CYP1A2
[2] = patients treated with tizanidine; appears to be dose related

Clc1ccc2nsnc2c1NC1=NCCN1 [Tizanidine, 5-chloro-4-(2-imidazolin-2-ylamino)-2,1,3-benzothiodiazole]
administered dose that is metabolized [1]: Approximately 95%
patients who report sedation [2]: 48%
